The values that follow come from ChEMBL document CHEMBL1138190, “Synthesis and antibacterial activity of novel C12 vinyl ketolides” (J Med Chem, 2006).

Common to all, as to format: functional
Experiment [1] relates to Haemophilus influenzae. Put plainly: Antibacterial activity against Haemophilus influenzae 2762.
Experiment [2] deals with Staphylococcus aureus. Briefly: Antibacterial activity against Staphylococcus aureus 29213.
Experiment [3] has as its system Staphylococcus aureus. Put plainly: Antibacterial activity against Staphylococcus aureus 33591.
The subject of experiment [4] is Staphylococcus epidermidis. Put plainly: Antibacterial activity against Staphylococcus epidermidis 14990.
For experiment [5], the system named is Staphylococcus epidermidis. Briefly: Antibacterial activity against Staphylococcus epidermidis f50654.
Experiment [6] deals with Enterococcus faecalis. Briefly: Antibacterial activity against Enterococcus faecalis 29212.
Experiment [7] has as its system Enterococcus faecalis. Put plainly: Antibacterial activity against Enterococcus faecalis bc11148-2.
In the next experiment the test system is Streptococcus pyogenes. Put plainly: Antibacterial activity against Streptococcus pyogenes 8668.
The subject of experiment [8] is Streptococcus pneumoniae. Put plainly: Antibacterial activity against Streptococcus pneumoniae 49619.
Experiment [9] relates to Streptococcus pneumoniae. Put plainly: Antibacterial activity against Streptococcus pneumoniae 297-749.
The test system of experiment [10] is Streptococcus pneumoniae. Briefly: Antibacterial activity against Streptococcus pneumoniae 280-962.
Experiment [11] relates to Streptococcus pneumoniae. Briefly: Antibacterial activity against Streptococcus pneumoniae Erm 6849.
For experiment [12], the system named is Streptococcus pneumoniae. Put plainly: Antibacterial activity against Streptococcus pneumoniae Mef 5654.
The subject of experiment [13] is Streptococcus pneumoniae. Briefly: Antibacterial activity against Streptococcus pneumoniae Mef S 3427.
Experiment [14] concerns Haemophilus influenzae. Briefly: Antibacterial activity against Haemophilus influenzae 49247.

The structures appear in SMILES notation. Values after ≈ are worked out from the molar mass of the structure shown. Bounds are passed on as bounds.

For the compound `C=C[C@]12OC(=O)N(CCN(C)Cc3cnc(-c4cccnc4)s3)[C@@H]1[C@@H](C)C(=O)[C@H](C)C[C@@](C)(OC)[C@H](O[C@@H]1O[C@H](C)C[C@H](N(C)C)[C@H]1O)[C@@H](C)C(=O)[C@@H](C)C(=O)O[C@@H]2CC`, the MIC is 3.13 µg/mL (≈ 3.66 µM) in the experiment with Haemophilus influenzae [1]; 0.1 µg/mL (≈ 0.117 µM) with Staphylococcus aureus [2]; above 50 µg/mL in the experiment with Staphylococcus aureus [3]; 0.1 µg/mL (≈ 0.117 µM) in [4]; 0.1 µg/mL (≈ 0.117 µM) in experiment [5]; 0.1 µg/mL (≈ 0.117 µM) in the experiment on Enterococcus faecalis [6]. Moreover, the MIC against Enterococcus faecalis [7] is 0.4 µg/mL (≈ 0.467 µM); against Streptococcus pyogenes, at most 0.05 µg/mL; against Streptococcus pneumoniae [8], at most 0.05 µg/mL; against Streptococcus pneumoniae [9] it was at most 0.05 µg/mL; with Streptococcus pneumoniae [10], at most 0.05 µg/mL; in the experiment with Streptococcus pneumoniae [11], 0.78 µg/mL (≈ 0.911 µM). Also, the results for the MIC in the experiment with Streptococcus pneumoniae [12], with Streptococcus pneumoniae [13] and with Haemophilus influenzae [14] were 0.4 µg/mL (≈ 0.467 µM), 0.1 µg/mL (≈ 0.117 µM) and 12.5 µg/mL (≈ 14.6 µM), respectively.
For `C=C[C@]12OC(=O)N(CCCCn3cnc(-c4cncnc4)c3)[C@@H]1[C@@H](C)C(=O)[C@H](C)C[C@@](C)(OC)[C@H](O[C@@H]1O[C@H](C)C[C@H](N(C)C)[C@H]1O)[C@@H](C)C(=O)[C@@H](C)C(=O)O[C@@H]2CC`, the MIC against Haemophilus influenzae [1] was 1.56 µg/mL (≈ 1.89 µM); in the experiment with Staphylococcus aureus [2] it was 0.2 µg/mL (≈ 0.242 µM); against Staphylococcus aureus [3] it was above 50 µg/mL; in experiment [4], 0.2 µg/mL (≈ 0.242 µM); in experiment [5] it was 0.2 µg/mL (≈ 0.242 µM); against Enterococcus faecalis [6] it was 0.1 µg/mL (≈ 0.121 µM). For the same compound, the MIC against Enterococcus faecalis [7] was 0.4 µg/mL (≈ 0.485 µM); with Streptococcus pyogenes it was at most 0.05 µg/mL; against Streptococcus pneumoniae [8], at most 0.05 µg/mL; with Streptococcus pneumoniae [9], at most 0.05 µg/mL; against Streptococcus pneumoniae [10], at most 0.05 µg/mL; in the experiment on Streptococcus pneumoniae [11], 0.2 µg/mL (≈ 0.242 µM). Also, the MIC in the experiment with Streptococcus pneumoniae [12] was 0.78 µg/mL (≈ 0.945 µM); against Streptococcus pneumoniae [13] it was 0.1 µg/mL (≈ 0.121 µM); against Haemophilus influenzae [14], 3.13 µg/mL (≈ 3.79 µM).
As for `C=C[C@]12OC(=O)N(CCCCn3cnc(-c4ccc(N(C)C)nc4)c3)[C@@H]1[C@@H](C)C(=O)[C@H](C)C[C@@](C)(OC)[C@H](O[C@@H]1O[C@H](C)C[C@H](N(C)C)[C@H]1O)[C@@H](C)C(=O)[C@@H](C)C(=O)O[C@@H]2CC`, the MIC was 1.56 µg/mL (≈ 1.8 µM) with Haemophilus influenzae [1]; 0.2 µg/mL (≈ 0.231 µM) in the experiment with Staphylococcus aureus [2]; above 50 µg/mL in the experiment on Staphylococcus aureus [3]; 0.2 µg/mL (≈ 0.231 µM) in experiment [4]; 0.2 µg/mL (≈ 0.231 µM) in [5]; 0.1 µg/mL (≈ 0.115 µM) with Enterococcus faecalis [6]. For the same compound, the MIC in the experiment on Enterococcus faecalis [7] is 0.78 µg/mL (≈ 0.9 µM); against Streptococcus pyogenes it was at most 0.05 µg/mL; in the experiment on Streptococcus pneumoniae [8], at most 0.05 µg/mL; against Streptococcus pneumoniae [9], at most 0.05 µg/mL; with Streptococcus pneumoniae [10] it was at most 0.05 µg/mL; with Streptococcus pneumoniae [11], 0.78 µg/mL (≈ 0.9 µM). Moreover, the MIC worked out at 1.56 µg/mL (≈ 1.8 µM) with Streptococcus pneumoniae [12], 0.2 µg/mL (≈ 0.231 µM) against Streptococcus pneumoniae [13] and 12.5 µg/mL (≈ 14.4 µM) against Haemophilus influenzae [14].
Regarding `C=C[C@]12OC(=O)N(CCCCn3cnc(-c4ccc(OC)nc4)c3)[C@@H]1[C@@H](C)C(=O)[C@H](C)C[C@@](C)(OC)[C@H](O[C@@H]1O[C@H](C)C[C@H](N(C)C)[C@H]1O)[C@@H](C)C(=O)[C@@H](C)C(=O)O[C@@H]2CC`, the MIC against Haemophilus influenzae [1] was 0.78 µg/mL (≈ 0.913 µM); in the experiment with Staphylococcus aureus [2], 0.1 µg/mL (≈ 0.117 µM); with Staphylococcus aureus [3], above 50 µg/mL; in [4], 0.2 µg/mL (≈ 0.234 µM); in experiment [5], 0.1 µg/mL (≈ 0.117 µM); against Enterococcus faecalis [6], at most 0.05 µg/mL. Also, the MIC with Enterococcus faecalis [7] was 0.78 µg/mL (≈ 0.913 µM); against Streptococcus pyogenes it was at most 0.05 µg/mL; in the experiment on Streptococcus pneumoniae [8], at most 0.05 µg/mL; with Streptococcus pneumoniae [9], at most 0.05 µg/mL; against Streptococcus pneumoniae [10], at most 0.05 µg/mL; against Streptococcus pneumoniae [11], 0.4 µg/mL (≈ 0.468 µM). Besides, the MIC in the experiment with Streptococcus pneumoniae [12] was 0.78 µg/mL (≈ 0.913 µM); against Streptococcus pneumoniae [13], 0.1 µg/mL (≈ 0.117 µM); with Haemophilus influenzae [14] it was 6.25 µg/mL (≈ 7.32 µM).
For the compound `C=C[C@]12OC(=O)N(CCCCn3cnc(-c4cccnc4)c3)[C@@H]1[C@@H](C)C(=O)[C@H](C)C[C@@](C)(OC)[C@H](O[C@@H]1O[C@H](C)C[C@H](N(C)C)[C@H]1O)[C@@H](C)C(=O)[C@@H](C)C(=O)O[C@@H]2CC`, the MIC in the experiment on Haemophilus influenzae [1] was 1.56 µg/mL (≈ 1.89 µM); against Staphylococcus aureus [2] it was 0.1 µg/mL (≈ 0.121 µM); with Staphylococcus aureus [3], above 50 µg/mL; in experiment [4], 0.2 µg/mL (≈ 0.243 µM); in experiment [5], 0.2 µg/mL (≈ 0.243 µM); against Enterococcus faecalis [6], 0.1 µg/mL (≈ 0.121 µM). The MIC is 0.4 µg/mL (≈ 0.485 µM) in the experiment on Enterococcus faecalis [7]; at most 0.05 µg/mL in the experiment with Streptococcus pyogenes; at most 0.05 µg/mL in the experiment on Streptococcus pneumoniae [8]; at most 0.05 µg/mL with Streptococcus pneumoniae [9]; at most 0.05 µg/mL in the experiment with Streptococcus pneumoniae [10]; 0.2 µg/mL (≈ 0.243 µM) against Streptococcus pneumoniae [11]. In addition, the MIC was determined as 0.4 µg/mL (≈ 0.485 µM) against Streptococcus pneumoniae [12], 0.1 µg/mL (≈ 0.121 µM) against Streptococcus pneumoniae [13] and 3.13 µg/mL (≈ 3.8 µM) against Haemophilus influenzae [14].
Take `C=C[C@]12OC(=O)N(CCN(C)Cc3cccc(-c4cccnc4)c3)[C@@H]1[C@@H](C)C(=O)[C@H](C)C[C@@](C)(OC)[C@H](O[C@@H]1O[C@H](C)C[C@H](N(C)C)[C@H]1O)[C@@H](C)C(=O)[C@@H](C)C(=O)O[C@@H]2CC`: the MIC was 1.56 µg/mL (≈ 1.84 µM) with Haemophilus influenzae [1]; 0.2 µg/mL (≈ 0.236 µM) against Staphylococcus aureus [2]; above 50 µg/mL against Staphylococcus aureus [3]; 0.2 µg/mL (≈ 0.236 µM) in [4]; 0.1 µg/mL (≈ 0.118 µM) in experiment [5]; 0.1 µg/mL (≈ 0.118 µM) in the experiment with Enterococcus faecalis [6]. The MIC against Enterococcus faecalis [7] is 0.1 µg/mL (≈ 0.118 µM); in the experiment on Streptococcus pyogenes, at most 0.05 µg/mL; in the experiment with Streptococcus pneumoniae [8], at most 0.05 µg/mL; in the experiment on Streptococcus pneumoniae [9] it was at most 0.05 µg/mL; against Streptococcus pneumoniae [10], at most 0.05 µg/mL; in the experiment on Streptococcus pneumoniae [11] it was 0.1 µg/mL (≈ 0.118 µM). The MIC is 0.78 µg/mL (≈ 0.919 µM) in the experiment on Streptococcus pneumoniae [12], 0.1 µg/mL (≈ 0.118 µM) in the experiment with Streptococcus pneumoniae [13] and 6.25 µg/mL (≈ 7.36 µM) against Haemophilus influenzae [14].
